By IC50 is commonly meant the concentration needed to halve the response being measured. The EC50 is the concentration that produces a half-maximal response.

Bounds are passed on as bounds.

Data on 4 compounds can be found in patent publication US20230233569A1 (Revolution Medicines, Inc., priority 2020, published 2023).

In one experiment the test system is NCI-H358 (K-Ras G12C). Nature of the experiment: CellTiter-Glo cell viability assay. The settings on record: Homo sapiens, NCI-H358, 120 h, read-out: H358 Cell Viability assay data IC50, K-Ras G12C, 5-day treatment. The format is cell-based. In outline: (§1)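 Compounds dispensed directly onto seeded AsPC-1 (K-Ras G12D) or NCI-H358 (K-Ras G12C) cells; CellTiter-Glo luminescence read on day 5 after ~30 min equilibration to room temperature. Signal normalized to DMSO average (%) and fit by four-parameter logistic.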

The subject of experiment [1] is AsPC-1 (K-Ras G12D). The experiment in a line: CellTiter-Glo cell viability assay. The format is cell-based. The settings on record: Homo sapiens, ASPC1, 120 h, read-out: AsPC-1 Cell Viability assay data IC50, K-Ras G12D, 5-day treatment. Summed up:
as §1
(In ATP-based viability assays light output follows the ATP content of the culture.)

Another experiment deals with KRAS G12C (Homo sapiens, UniProt P01116+P62937, G12C). The experiment in a line: Ras-Raf disruption / FRET / MOA assay (BRAF RBD). The format is biochemical. The settings on record: KRAS G12C FRET data IC50, Ras-Raf disruption, with Cyclophilin A. Summed up: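 His6-K-Ras G12C-GMPPNP (12.5 nM), GST-BRAF RBD (50 nM) and tagless Cyclophilin A (25 μM) incubated 3 h at 25 °C with compound (10-point 3-fold series from 30 μM), pH 7.3 HEPES buffer. Anti-His Eu/anti-GST APC added for 1.5 h; decreased TR-FRET ratio vs DMSO gives IC50.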

Experiment [2] concerns AsPC-1 (K-Ras G12D). Nature of the experiment: Potency assay: pERK. It is filed as cell-based. The settings on record: Homo sapiens, ASPC1, read-out: pERK EC50.
A further experiment addresses NRAS WT (Homo sapiens, UniProt P01111+P62937). The experiment in a line: Ras-Raf disruption / FRET / MOA assay (BRAF RBD). It is filed as biochemical. In outline: (§2)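 TR-FRET in 25 mM HEPES pH 7.3, 100 mM NaCl, 5 mM MgCl2, 0.1% BSA, 0.002% Tween20 with 25 μM Cyclophilin A, 12.5 nM His6-Ras-GMPPNP, 50 nM GST-BRAF RBD; compound 10-point 3-fold series from 30 μM. After 3 h at 25 °C, Eu anti-His/APC anti-GST added for 1.5 h; IC50 from ratio decrease versus DMSO.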

The target in a further experiment is NRAS Q61K (Homo sapiens, UniProt P01111+P62937, Q61K). The experiment in a line: Ras-Raf disruption / FRET / MOA assay (BRAF RBD). It is filed as biochemical. In outline: as §2
Another experiment concerns the target KRAS G13D (Homo sapiens, UniProt P01116+P62937, G13D). The experiment in a line: Ras-Raf disruption / FRET / MOA assay (BRAF RBD). It is filed as biochemical. The settings on record: KRAS G13D FRET data IC50, Ras-Raf disruption, with Cyclophilin A. In outline:
as §2

The next experiment concerns the target NRAS Q61R (Homo sapiens, UniProt P01111+P62937, Q61R). The experiment in a line: Ras-Raf disruption / FRET / MOA assay (BRAF RBD). The format is biochemical. In outline: as §2
In a further experiment the target is KRAS Q61H (Homo sapiens, UniProt P01116+P62937, Q61H). The experiment in a line: Ras-Raf disruption / FRET / MOA assay (BRAF RBD). The format is biochemical. Summed up:
as §2

A further experiment deals with KRAS WT (Homo sapiens, UniProt P01116+P62937). Nature of the experiment: Ras-Raf disruption / FRET / MOA assay (BRAF RBD). It is filed as biochemical. The settings on record: KRAS WT FRET data IC50, Ras-Raf disruption, with Cyclophilin A. Summed up: as §2
The target of another experiment is KRAS G12S (Homo sapiens, UniProt P01116+P62937, G12S). Nature of the experiment: Ras-Raf disruption / FRET / MOA assay (BRAF RBD). The format is biochemical. The settings on record: KRAS G12S FRET data IC50, Ras-Raf disruption, with Cyclophilin A. Summed up:
as §2

The target in the next experiment is KRAS G12D (Homo sapiens, UniProt P01116+P62937, G12D). The experiment in a line: Ras-Raf disruption / FRET / MOA assay (BRAF RBD). The format is biochemical. The settings on record: KRAS G12D FRET data IC50, Ras-Raf disruption, with Cyclophilin A. In outline:
as §2

The target in another experiment is NRAS G12C (Homo sapiens, UniProt P01111+P62937, G12C). Nature of the experiment: Ras-Raf disruption / FRET / MOA assay (BRAF RBD). It is filed as biochemical. The settings on record: NRAS G12C FRET data IC50, NRAS G12C. In outline:
as §2

A further experiment has as its target KRAS G12V (Homo sapiens, UniProt P01116+P62937, G12V). Nature of the experiment: Ras-Raf disruption / FRET / MOA assay (BRAF RBD). It is filed as biochemical. The settings on record: KRAS G12V FRET data IC50, Ras-Raf disruption, with Cyclophilin A. In outline:
as §2

For the next experiment, the target named is KRAS G13C (Homo sapiens, UniProt P01116+P62937, G13C). The experiment in a line: Ras-Raf disruption / FRET / MOA assay (BRAF RBD). The format is biochemical. The settings on record: KRAS G13C FRET data IC50, Ras-Raf disruption, with Cyclophilin A. In outline:
as §2

Sequence of KRAS G12V (P01116 1-169 isoform P01116-2 G12V limits assumed): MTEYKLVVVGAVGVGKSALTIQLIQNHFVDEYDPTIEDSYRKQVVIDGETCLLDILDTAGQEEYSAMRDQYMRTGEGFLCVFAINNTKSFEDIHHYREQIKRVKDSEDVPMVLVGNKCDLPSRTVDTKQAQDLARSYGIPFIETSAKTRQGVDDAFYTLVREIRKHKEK
Sequence of KRAS G12V (P62937 whole entry): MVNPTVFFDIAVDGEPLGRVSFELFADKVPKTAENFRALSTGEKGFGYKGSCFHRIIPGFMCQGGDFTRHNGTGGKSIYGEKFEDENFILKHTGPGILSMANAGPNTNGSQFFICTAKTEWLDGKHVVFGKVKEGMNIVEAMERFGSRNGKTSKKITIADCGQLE
Sequence of KRAS G13C (P01116 1-169 isoform P01116-2 G13C limits assumed): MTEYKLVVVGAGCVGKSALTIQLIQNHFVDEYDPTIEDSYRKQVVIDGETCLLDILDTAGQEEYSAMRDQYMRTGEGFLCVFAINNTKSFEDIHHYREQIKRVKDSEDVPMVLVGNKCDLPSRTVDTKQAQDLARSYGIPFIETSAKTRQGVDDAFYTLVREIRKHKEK
Sequence of KRAS G13C (P62937 whole entry): as the sequence (P62937 whole entry) above
Sequence of KRAS G12S (P01116 1-169 isoform P01116-2 G12S limits assumed): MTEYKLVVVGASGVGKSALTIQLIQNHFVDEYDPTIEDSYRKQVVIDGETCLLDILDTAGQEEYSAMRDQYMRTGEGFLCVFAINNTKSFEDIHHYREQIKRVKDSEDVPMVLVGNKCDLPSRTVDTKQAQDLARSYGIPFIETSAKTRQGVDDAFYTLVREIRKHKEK
Sequence of KRAS G12S (P62937 whole entry): as the sequence (P62937 whole entry) above
Sequence of KRAS WT (P01116 1-169 isoform P01116-2 limits assumed): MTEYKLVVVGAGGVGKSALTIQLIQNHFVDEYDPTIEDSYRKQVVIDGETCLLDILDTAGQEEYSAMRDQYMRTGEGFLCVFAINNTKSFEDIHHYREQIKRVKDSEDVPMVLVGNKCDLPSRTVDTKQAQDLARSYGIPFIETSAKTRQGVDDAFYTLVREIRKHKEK
Sequence of KRAS WT (P62937 whole entry): as the sequence (P62937 whole entry) above
Sequence of NRAS G12C (P01111 whole entry G12C): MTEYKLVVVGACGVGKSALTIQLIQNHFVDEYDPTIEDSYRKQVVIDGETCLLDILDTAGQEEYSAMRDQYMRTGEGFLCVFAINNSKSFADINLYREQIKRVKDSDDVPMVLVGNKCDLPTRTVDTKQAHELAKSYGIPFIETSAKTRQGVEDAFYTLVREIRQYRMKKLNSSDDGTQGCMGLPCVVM
Sequence of NRAS G12C (P62937 whole entry): as the sequence (P62937 whole entry) above
Sequence of NRAS Q61R (P01111 whole entry Q61R): as the sequence (P01111 whole entry G12C) above, with C12G, Q61R counted along it
Sequence of NRAS Q61R (P62937 whole entry): as the sequence (P62937 whole entry) above
Sequence of KRAS G12C (P01116 1-169 isoform P01116-2 G12C limits assumed): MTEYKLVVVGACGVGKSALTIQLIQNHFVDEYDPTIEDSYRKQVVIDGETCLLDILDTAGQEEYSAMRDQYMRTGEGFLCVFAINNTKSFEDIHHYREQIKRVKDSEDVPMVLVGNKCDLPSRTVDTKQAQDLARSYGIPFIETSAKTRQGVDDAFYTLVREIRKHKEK
Sequence of KRAS G12C (P62937 whole entry): as the sequence (P62937 whole entry) above
Sequence of KRAS G13D (P01116 1-169 isoform P01116-2 G13D limits assumed): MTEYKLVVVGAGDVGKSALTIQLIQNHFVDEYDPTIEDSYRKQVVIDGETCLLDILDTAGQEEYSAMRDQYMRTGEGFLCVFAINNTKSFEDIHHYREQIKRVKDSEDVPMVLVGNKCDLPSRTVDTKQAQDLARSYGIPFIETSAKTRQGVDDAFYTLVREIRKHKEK
Sequence of KRAS G13D (P62937 whole entry): as the sequence (P62937 whole entry) above
Sequence of KRAS Q61H (P01116 1-169 isoform P01116-2 Q61H limits assumed): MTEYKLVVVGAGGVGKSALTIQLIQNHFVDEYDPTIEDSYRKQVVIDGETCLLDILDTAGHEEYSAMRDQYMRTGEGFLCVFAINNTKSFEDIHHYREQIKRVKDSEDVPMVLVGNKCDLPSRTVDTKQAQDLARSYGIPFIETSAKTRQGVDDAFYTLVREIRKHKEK
Sequence of KRAS Q61H (P62937 whole entry): as the sequence (P62937 whole entry) above
Sequence of NRAS Q61K (P01111 whole entry Q61K): as the sequence (P01111 whole entry G12C) above, with C12G, Q61K counted along it
Sequence of NRAS Q61K (P62937 whole entry): as the sequence (P62937 whole entry) above
Sequence of NRAS WT (P01111 whole entry): as the sequence (P01111 whole entry G12C) above, with C12G counted along it
Sequence of NRAS WT (P62937 whole entry): as the sequence (P62937 whole entry) above
Sequence of KRAS G12D (P01116 1-169 isoform P01116-2 G12D limits assumed): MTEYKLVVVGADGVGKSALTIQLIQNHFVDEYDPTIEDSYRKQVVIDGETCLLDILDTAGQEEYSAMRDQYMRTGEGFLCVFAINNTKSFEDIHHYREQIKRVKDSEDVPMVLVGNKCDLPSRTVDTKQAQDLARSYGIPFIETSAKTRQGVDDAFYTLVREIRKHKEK
Sequence of KRAS G12D (P62937 whole entry): as the sequence (P62937 whole entry) above

Take `CCn1c(-c2cc(N3CCN(C)CC3)cnc2[C@H](C)OC)c2c3cc(ccc31)-c1cc(O)cc(c1)C[C@H](NC(=O)[C@H](C1CCCC1)N(C)C(=O)CN(C)C(=O)[C@H]1CN1)C(=O)N1CCC[C@H](N1)C(=O)OCC(C)(C)C2` [Example 209, (2R)—N-(2-(((1S)-1-cyclopentyl-2-(((6^3S,4S)-1^1-ethyl-2^5-hydroxy-1^2-(2-((S)-1-methoxyethyl)-5-(4-methylpiperazin-1-yl)pyridin-3-yl)-10,10-dimethyl-5,7-dioxo-6^1,6^2,6^3,6^4,6^5,6^6-hexahydro-1^1H-8-oxa-1(5,3)-indola-6(1,3)-pyridazina-2(1,3)-benzenacycloundecaphane-4-yl)amino)-2-oxoethyl)(methyl)amino)-2-oxoethyl)-N-methylaziridine-2-carboxamide]: the half-maximal inhibitory concentration (IC50) was under 10 nM with NCI-H358 (K-Ras G12C); under 10 nM in the experiment on AsPC-1 (K-Ras G12D) [1]; under 10 nM against KRAS G12C; 10 to 100 nM on NRAS WT; 100 to 1000 nM against NRAS Q61K; 10 to 100 nM at KRAS G13D. The IC50 at NRAS Q61R is 10 to 100 nM; on KRAS Q61H, under 10 nM; on KRAS WT, 10 to 100 nM; at KRAS G12S, 10 to 100 nM; at KRAS G12D, 10 to 100 nM; on NRAS G12C, under 10 nM. Besides, the IC50 on KRAS G12V was 10 to 100 nM; against KRAS G13C, under 10 nM. Moreover, in the experiment on AsPC-1 (K-Ras G12D) [2], the concentration giving a half-maximal response (EC50) was under 5000 nM.
On to `CCn1c(-c2cccnc2[C@H](C)OC)c2c3cc(ccc31)-c1cc(O)cc(c1)C[C@H](NC(=O)[C@H](C(C)C)N(C)C(=O)CN(C)C(=O)[C@H]1CN1CC(=O)N(C)C)C(=O)N1CCC[C@H](N1)C(=O)OCC(C)(C)C2` (stereo partly drawn) [Example 270], for which the concentration for half-maximal inhibition (IC50) is 10 to 100 nM in the experiment with NCI-H358 (K-Ras G12C); 100 to 1000 nM with AsPC-1 (K-Ras G12D) [1]; under 10 nM on KRAS G12C; 100 to 1000 nM at NRAS WT; 1000 to 10000 nM on NRAS Q61K; 100 to 1000 nM against KRAS G13D. The IC50 is 1000 to 10000 nM on NRAS Q61R; 100 to 1000 nM on KRAS Q61H; 100 to 1000 nM at KRAS WT; 10 to 100 nM against KRAS G12S; 100 to 1000 nM against KRAS G12D; under 10 nM on NRAS G12C. In addition, the IC50 against KRAS G12V fell in the range of 100 to 1000 nM; at KRAS G13C, 10 to 100 nM. In the experiment with AsPC-1 (K-Ras G12D) [2], the EC50 was under 5000 nM.
Consider `CCn1c(-c2cccnc2[C@H](C)OC)c2c3cc(ccc31)-c1cc(O)cc(c1)C[C@H](NC(=O)[C@H](C(C)C)N(C)C(=O)CN(C)C(=O)[C@@H]1N[C@@H]1C(F)(F)F)C(=O)N1CCC[C@H](N1)C(=O)OCC(C)(C)C2` [Example 258], for which the 50% inhibitory concentration (IC50) in the experiment on NCI-H358 (K-Ras G12C) is 10 to 100 nM; in the experiment on AsPC-1 (K-Ras G12D) [1], 100 to 1000 nM; at KRAS G12C, 10 to 100 nM; on NRAS WT, under 10 nM; against NRAS Q61K it was 10 to 100 nM; against KRAS G13D, 10 to 100 nM. Moreover, the IC50 was 10 to 100 nM against NRAS Q61R; under 10 nM against KRAS Q61H; 10 to 100 nM against KRAS WT; 10 to 100 nM against KRAS G12S; 10 to 100 nM at KRAS G12D; 10 to 100 nM at NRAS G12C. For the same compound, the IC50 against KRAS G12V was 10 to 100 nM; on KRAS G13C, under 10 nM. Also, the EC50 in the experiment with AsPC-1 (K-Ras G12D) [2] was under 5000 nM.
For the compound `CCn1c(-c2cccnc2[C@H](C)OC)c2c3cc(ccc31)-c1cc(O)cc(c1)C[C@H](NC(=O)[C@H](C(C)C)N(C)C(=O)CN(C)C(=O)[C@H]1N[C@@H]1C(F)(F)F)C(=O)N1CCC[C@H](N1)C(=O)OCC(C)(C)C2` [Example 261], the IC50 was under 10 nM in the experiment on NCI-H358 (K-Ras G12C); 100 to 1000 nM with AsPC-1 (K-Ras G12D) [1]; 10 to 100 nM against KRAS G12C; 10 to 100 nM on NRAS WT; 100 to 1000 nM against NRAS Q61K; 10 to 100 nM against KRAS G13D. Also, the half-maximal inhibitory concentration (IC50) lay in the range of 100 to 1000 nM at NRAS Q61R; 10 to 100 nM against KRAS Q61H; 10 to 100 nM at KRAS WT; 10 to 100 nM at KRAS G12S; 10 to 100 nM at KRAS G12D; 10 to 100 nM on NRAS G12C. Further, the half-inhibitory concentration (IC50) on KRAS G12V and against KRAS G13C was 10 to 100 nM in each case. Moreover, the EC50 with AsPC-1 (K-Ras G12D) [2] is under 5000 nM.
